Tests used:
[1] = molecular target: A2A (h) (Homo sapiens, UniProt P29274); test: competitive radioligand binding assay, A2A (h) (agonist radioligand)
[2] = system: α1 (non-selective); test: competitive radioligand binding assay, α1 (non-selective (antagonist radioligand)); details: 10 μM
[3] = system: a2 (non-selective); test: competitive radioligand binding assay, a2 (non-selective) (antagonist radioligand); details: 10 μM
[4] = molecular target: β1 (h) (Homo sapiens, UniProt P08588); test: competitive radioligand binding assay, β1 (h) (agonist radioligand)
[5] = molecular target: CB2 (h) (Homo sapiens, UniProt P34972); test: competitive radioligand binding assay, CB2 (h) (agonist radioligand)
[6] = molecular target: CCK2 (CCKB) (h) (Homo sapiens, UniProt P32239); test: competitive radioligand binding assay, CCK2 (CCKB) (h) (agonist radioligand)
[7] = molecular target: D1 (h) (Homo sapiens, UniProt P21728); test: competitive radioligand binding assay, D1 (h) (antagonist radioligand)
[8] = system: kainate; test: competitive radioligand binding assay, kainate (agonist radioligand); details: 10 μM
[9] = system: NMDA; test: competitive radioligand binding assay, NMDA (antagonist radioligand); details: 10 μM
[10] = molecular target: H3 (h) (Homo sapiens, UniProt Q9Y5N1); test: competitive radioligand binding assay, H3 (h) (agonist radioligand)
[11] = molecular target: CysLT1 (LTD4) (h) (Homo sapiens, UniProt Q9Y271); test: competitive radioligand binding assay, CysLT1 (LTD4) (h) (agonist radioligand)
[12] = molecular target: MC4 (h) (Homo sapiens, UniProt P32245); test: competitive radioligand binding assay, MC4 (h) (agonist radioligand)
[13] = system: M (non0selective); test: competitive radioligand binding assay, M (non0selective) (antagonist radioligand); details: 10 μM
[14] = molecular target: PPARγ (h) (Homo sapiens, UniProt P37231); test: competitive radioligand binding assay, PPARγ (h) (agonist radioligand)
[15] = system: PCP; test: competitive radioligand binding assay, PCP (antagonist radioligand); details: 10 μM
[16] = molecular target: EP2 (h) (Homo sapiens, UniProt P43116); test: competitive radioligand binding assay, EP2 (h) (agonist radioligand)
[17] = molecular target: IP (PGI2) (h) (Homo sapiens, UniProt P43119); test: competitive radioligand binding assay, IP (PGI2) (h) (agonist radioligand)
[18] = system: 5-HT (non-selective); test: competitive radioligand binding assay, 5-HT (non-selective) (agonist radioligand); details: 10 μM
[19] = molecular target: PR (h) (Homo sapiens, UniProt P06401); test: competitive radioligand binding assay, PR (h) (agonist radioligand)
[20] = system: Ca2+ channel (L, dihydropyridine site); test: competitive radioligand binding assay, Ca2+ channel (L, dihydropyridine site) (antagonist radioligand); details: 10 μM
[21] = system: Ca2+ channel (L, diltiazem site) (benzothiazepines); test: competitive radioligand binding assay, Ca2+ channel (L, diltiazem site) (benzothiazepines) (antagonist radioligand); details: 10 μM
[22] = system: Ca2+channel (L, verapamil site) (phenylalkylamine); test: competitive radioligand binding assay, Ca2+channel (L, verapamil site) (phenylalkylamine) (antagonist radioligand); details: 10 μM
[23] = system: KV channel; test: competitive radioligand binding assay, KV channel (antagonist radioligand); details: 10 μM
[24] = system: SKCa channel; test: competitive radioligand binding assay, SKCa channel (antagonist radioligand); details: 10 μM
[25] = system: GABA transporter; test: competitive radioligand binding assay, GABA transporter (antagonist radioligand); details: 10 μM
[26] = molecular target: 5-HT transporter (h) (Homo sapiens, UniProt P31645); test: competitive radioligand binding assay, 5-HT transporter (h) (antagonist radioligand)
[27] = system: LnCAP cells; test: Inhibition of DHT-stimulated proliferation of LnCAP cells; type: cell-based, human
Experimental: The expression of PSA was measured in the culture medium 24 hours thereafter (FIG. 1). […] The LnCAP cells were cultured for a further 5 days and the number of viable cells was then calculated.
FIG. 2. Inhibition of DHT-stimulated proliferation of LnCAP cells.

[28] = system: CYP 3A; test: CYP 3A induction assay; type: in vitro ADME

Chain of D1 (h) (P21728 whole entry): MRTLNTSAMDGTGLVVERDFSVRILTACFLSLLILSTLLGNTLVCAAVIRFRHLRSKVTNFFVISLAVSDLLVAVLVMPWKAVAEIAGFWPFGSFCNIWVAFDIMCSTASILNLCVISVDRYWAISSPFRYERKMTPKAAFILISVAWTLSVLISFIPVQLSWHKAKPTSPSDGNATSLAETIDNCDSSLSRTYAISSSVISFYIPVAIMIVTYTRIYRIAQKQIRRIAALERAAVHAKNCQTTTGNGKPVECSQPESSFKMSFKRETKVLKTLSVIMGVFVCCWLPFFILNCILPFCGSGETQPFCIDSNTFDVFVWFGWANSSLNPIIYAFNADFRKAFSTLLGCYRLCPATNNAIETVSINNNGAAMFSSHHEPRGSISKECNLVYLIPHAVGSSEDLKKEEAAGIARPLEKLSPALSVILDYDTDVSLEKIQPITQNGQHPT
Chain of A2A (h) (P29274 whole entry): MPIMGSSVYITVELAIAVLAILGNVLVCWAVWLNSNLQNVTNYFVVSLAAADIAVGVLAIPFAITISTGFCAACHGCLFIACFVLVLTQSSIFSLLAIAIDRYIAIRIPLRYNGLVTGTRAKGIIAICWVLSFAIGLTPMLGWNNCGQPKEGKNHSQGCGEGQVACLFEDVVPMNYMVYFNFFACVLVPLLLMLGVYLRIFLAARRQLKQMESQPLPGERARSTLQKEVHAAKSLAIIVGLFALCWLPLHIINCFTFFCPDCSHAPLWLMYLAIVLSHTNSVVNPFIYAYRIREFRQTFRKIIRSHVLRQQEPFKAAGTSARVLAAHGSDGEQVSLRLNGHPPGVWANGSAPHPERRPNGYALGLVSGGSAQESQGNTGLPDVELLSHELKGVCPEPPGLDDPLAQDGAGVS
Chain of 5-HT transporter (h) (P31645 whole entry): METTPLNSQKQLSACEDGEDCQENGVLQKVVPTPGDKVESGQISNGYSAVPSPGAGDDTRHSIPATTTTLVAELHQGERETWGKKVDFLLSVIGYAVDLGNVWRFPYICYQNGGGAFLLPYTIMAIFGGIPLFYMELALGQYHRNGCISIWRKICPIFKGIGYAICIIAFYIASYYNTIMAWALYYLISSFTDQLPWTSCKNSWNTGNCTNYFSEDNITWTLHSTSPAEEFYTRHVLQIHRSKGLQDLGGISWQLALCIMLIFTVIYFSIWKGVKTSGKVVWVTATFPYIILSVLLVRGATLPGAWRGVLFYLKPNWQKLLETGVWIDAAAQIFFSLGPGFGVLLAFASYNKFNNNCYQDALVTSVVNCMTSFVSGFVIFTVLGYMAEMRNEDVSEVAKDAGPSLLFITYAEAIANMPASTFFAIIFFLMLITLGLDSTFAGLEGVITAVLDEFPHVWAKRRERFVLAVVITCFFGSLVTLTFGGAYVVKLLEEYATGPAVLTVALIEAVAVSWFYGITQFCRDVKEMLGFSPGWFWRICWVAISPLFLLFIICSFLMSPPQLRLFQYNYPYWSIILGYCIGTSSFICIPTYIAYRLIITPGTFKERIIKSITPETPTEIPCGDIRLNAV
Chain of CB2 (h) (P34972 whole entry): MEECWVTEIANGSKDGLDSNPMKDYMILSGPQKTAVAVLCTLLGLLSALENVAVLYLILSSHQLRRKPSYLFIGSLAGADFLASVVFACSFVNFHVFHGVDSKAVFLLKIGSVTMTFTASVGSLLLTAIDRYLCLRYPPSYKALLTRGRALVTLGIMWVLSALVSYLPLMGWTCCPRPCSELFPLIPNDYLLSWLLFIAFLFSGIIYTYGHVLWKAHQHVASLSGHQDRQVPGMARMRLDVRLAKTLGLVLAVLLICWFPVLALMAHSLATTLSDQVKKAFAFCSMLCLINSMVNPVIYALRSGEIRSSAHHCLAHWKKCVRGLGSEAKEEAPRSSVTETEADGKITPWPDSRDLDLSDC
Chain of IP (PGI2) (h) (P43119 whole entry): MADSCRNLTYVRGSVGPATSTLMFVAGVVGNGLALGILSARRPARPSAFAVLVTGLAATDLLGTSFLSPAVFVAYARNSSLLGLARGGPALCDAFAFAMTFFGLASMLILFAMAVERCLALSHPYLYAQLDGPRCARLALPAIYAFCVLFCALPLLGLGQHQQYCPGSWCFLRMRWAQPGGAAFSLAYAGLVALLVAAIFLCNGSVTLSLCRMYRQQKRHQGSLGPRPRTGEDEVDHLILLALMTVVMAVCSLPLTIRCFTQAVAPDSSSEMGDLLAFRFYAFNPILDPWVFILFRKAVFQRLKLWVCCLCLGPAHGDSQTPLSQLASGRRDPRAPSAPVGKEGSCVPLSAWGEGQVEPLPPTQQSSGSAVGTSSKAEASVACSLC
Chain of PPARγ (h) (P37231 whole entry): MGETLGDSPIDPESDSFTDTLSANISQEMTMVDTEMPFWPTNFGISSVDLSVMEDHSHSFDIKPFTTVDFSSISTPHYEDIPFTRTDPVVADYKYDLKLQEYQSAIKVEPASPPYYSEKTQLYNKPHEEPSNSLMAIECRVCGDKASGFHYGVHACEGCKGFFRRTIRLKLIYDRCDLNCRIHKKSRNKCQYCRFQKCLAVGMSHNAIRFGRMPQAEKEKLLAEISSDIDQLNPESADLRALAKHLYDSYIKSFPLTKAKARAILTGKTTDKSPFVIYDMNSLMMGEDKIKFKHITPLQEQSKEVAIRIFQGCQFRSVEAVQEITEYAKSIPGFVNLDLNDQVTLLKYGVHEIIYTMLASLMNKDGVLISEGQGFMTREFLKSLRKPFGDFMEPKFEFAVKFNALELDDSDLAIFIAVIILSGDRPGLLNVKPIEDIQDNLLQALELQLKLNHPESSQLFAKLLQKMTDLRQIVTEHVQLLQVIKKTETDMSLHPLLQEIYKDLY
Chain of H3 (h) (Q9Y5N1 whole entry): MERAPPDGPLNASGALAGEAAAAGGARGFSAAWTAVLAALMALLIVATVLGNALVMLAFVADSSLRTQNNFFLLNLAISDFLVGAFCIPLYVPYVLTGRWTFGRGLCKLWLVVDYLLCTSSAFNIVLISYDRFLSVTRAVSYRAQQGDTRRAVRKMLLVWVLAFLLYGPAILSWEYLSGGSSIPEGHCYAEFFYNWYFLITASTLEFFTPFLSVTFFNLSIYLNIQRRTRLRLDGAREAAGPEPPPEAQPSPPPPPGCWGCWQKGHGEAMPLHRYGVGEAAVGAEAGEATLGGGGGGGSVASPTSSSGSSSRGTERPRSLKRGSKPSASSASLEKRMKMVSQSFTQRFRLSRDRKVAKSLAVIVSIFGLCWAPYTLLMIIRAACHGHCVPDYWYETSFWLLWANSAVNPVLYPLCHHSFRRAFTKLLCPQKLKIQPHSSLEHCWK
Chain of CCK2 (CCKB) (h) (P32239 whole entry): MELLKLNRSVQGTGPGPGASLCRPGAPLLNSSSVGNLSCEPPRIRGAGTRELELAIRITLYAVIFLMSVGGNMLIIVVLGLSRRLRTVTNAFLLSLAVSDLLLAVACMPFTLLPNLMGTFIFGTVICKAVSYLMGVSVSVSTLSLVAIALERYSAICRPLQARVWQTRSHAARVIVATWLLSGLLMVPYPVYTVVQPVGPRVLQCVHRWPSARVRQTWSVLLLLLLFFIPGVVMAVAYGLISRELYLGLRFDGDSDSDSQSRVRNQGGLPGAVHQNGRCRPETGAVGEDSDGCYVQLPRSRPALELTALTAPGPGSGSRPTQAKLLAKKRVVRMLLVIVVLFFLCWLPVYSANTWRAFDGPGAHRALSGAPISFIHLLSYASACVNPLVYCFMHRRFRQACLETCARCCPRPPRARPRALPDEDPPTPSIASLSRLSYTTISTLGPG
Chain of CysLT1 (LTD4) (h) (Q9Y271 whole entry): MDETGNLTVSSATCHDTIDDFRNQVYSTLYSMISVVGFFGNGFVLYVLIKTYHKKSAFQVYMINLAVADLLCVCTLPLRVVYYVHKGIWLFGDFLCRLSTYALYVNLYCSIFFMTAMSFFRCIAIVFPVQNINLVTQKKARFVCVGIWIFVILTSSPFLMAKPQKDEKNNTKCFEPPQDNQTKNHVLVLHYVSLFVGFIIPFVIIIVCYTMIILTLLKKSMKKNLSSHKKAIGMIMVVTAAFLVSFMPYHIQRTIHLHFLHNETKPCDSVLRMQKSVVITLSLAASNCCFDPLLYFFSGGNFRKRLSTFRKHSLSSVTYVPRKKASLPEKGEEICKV
Chain of MC4 (h) (P32245 whole entry): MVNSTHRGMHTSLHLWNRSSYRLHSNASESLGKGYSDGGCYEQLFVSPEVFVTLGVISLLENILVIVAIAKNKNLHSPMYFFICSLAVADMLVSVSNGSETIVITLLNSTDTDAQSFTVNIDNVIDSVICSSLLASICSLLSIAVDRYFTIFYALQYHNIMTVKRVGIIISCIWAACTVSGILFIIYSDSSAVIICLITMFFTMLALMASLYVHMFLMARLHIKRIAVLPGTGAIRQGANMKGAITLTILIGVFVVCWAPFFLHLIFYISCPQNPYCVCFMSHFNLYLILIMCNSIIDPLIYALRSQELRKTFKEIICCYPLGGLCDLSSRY
Chain of EP2 (h) (P43116 whole entry): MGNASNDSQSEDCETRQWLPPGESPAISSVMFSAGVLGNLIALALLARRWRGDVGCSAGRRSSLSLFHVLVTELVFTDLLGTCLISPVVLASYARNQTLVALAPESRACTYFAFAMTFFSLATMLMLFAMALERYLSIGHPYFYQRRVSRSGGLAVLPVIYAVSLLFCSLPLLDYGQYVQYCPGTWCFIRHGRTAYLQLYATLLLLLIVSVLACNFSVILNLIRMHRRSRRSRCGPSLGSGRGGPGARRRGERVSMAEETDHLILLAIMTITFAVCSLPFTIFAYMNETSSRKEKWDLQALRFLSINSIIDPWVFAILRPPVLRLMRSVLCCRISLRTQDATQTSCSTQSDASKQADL

**Q.** What does the source list for `CNC(=O)c1ccc(N2C(=S)N(c3ccc(C#N)c(C(F)(F)F)c3)C(=O)[C@]23CCOC3)cc1F` [(R)-1, 4-[(R)-3-(4-cyano-3-trifluoromethyl-phenyl)-4-oxo-2-thioxo-7-oxa-1,3-diaza-spiro[4.4]non-1-yl]-2-fluoro-N-methyl-benzamide]?
**A.** inhibition at 10 µM [1]: 8.1%; % Inhibition [2]: 0.7%; % Inhibition [3]: −3.7%; inhibition at 10 µM [4]: 1.8%; inhibition at 10 µM [5]: 9.1%; inhibition at 10 µM [6]: -2.5%; inhibition at 10 µM [7]: -2.4%; % Inhibition [8]: 13.1%; % Inhibition [9]: 2.0%; inhibition at 10 µM [10]: -13%; inhibition at 10 µM [11]: -13.9%; inhibition at 10 µM [12]: -3.1%; % Inhibition [13]: −8.9%; inhibition at 10 µM [14]: -19.2%; % Inhibition [15]: 0.5%; inhibition at 10 µM [16]: 0%; inhibition at 10 µM [17]: -7.3%; % Inhibition [18]: −8.2%; inhibition at 10 µM [19]: 66.6%; % Inhibition [20]: −2.5%; % Inhibition [21]: −23.6%; % Inhibition [22]: 4.0%; % Inhibition [23]: −10.1%; % Inhibition [24]: −4.8%; % Inhibition [25]: 9.7%; inhibition at 10 µM [26]: 43.5%; IC50 ([27]; Homo sapiens, LNCaP, 120 h, read-out: IC50, inhibition of DHT-induced cell proliferation): 30 nM; fold more efficient than III in inhibiting DHT-induced cell proliferation ([27]; LnCAP cells, versus III): around 8 fold; fold more efficient than Ia in inhibiting DHT-induced cell proliferation ([27]; LnCAP cells, versus Ia): around 6 fold; Positive control, % (CYP 3A induction) ([28]; Concentration 1 μM): 0.0 ± 2.0%; Positive control, % (CYP 3A induction) ([28]; Concentration 10 μM): 42.0 ± 6.1%
